Here are results for three compounds from patent publication US20180244645A1, “2-AMINO-3-FLUORO-3-(FLUOROMETHYL)-6-METHYL-6-PHENYL-3,4,5,6-TETRAHYDROPYRIDINES AS BACE1 INHIBITORS” (H. Lundbeck A/S, priority 2015, published 2018).

In the test the test system is Aβ40. Description: Assessment of Aβ levels in rat brain and plasma following BACE1 inhibition (Aβ40 ELISA). Type of test: in vivo. As to conditions: 3 hours post dose, vs vehicle. As for the experimental part:
Assessment of Aβ Levels in Rat Brain and Plasma Following BACE1 Inhibition. Animals.
All rat care and experimental procedures were approved by Lundbeck Veterinary Staff, according to Danish legislature. The rats were maintained in a barrier facility with a 12/12-h light/dark cycle and ad libitum food and water access.
Young adult Male Sprague Dawley rats of approximately 250 g weight were purchased from Charles River and received 0-30 mg/kg of vehicle (10% HP betaCD+1M MeSO4, pH 2.5) or test compounds (dissolved in vehicle) only by oral gavage (p.o). The compounds are dosed at a volume of 5 ml/kg. Cohorts of 5-10 animals were established for each treatment condition.
The animals undergoing treatment were closely monitored by veterinary staff for any signs of toxicity. Monitoring parameters included body weight, physical appearance, changes in coat appearance, occurrence of unprovoked behavior, and blunted or exaggerated responses to external stimuli.
At T=180 minutes after initial dosing the animals were stunned and decapitated with a guillotine. Trunk-blood was sampled in EDTA coated tubes after decapitation of the animal. The blood was centrifuged at 2200G at 4° C. for 15 minutes and the plasma was collected and frozen at −80° C. The blood was aliquoted for Aβ ELISA and pharmacokinetic analysis. Immediately following sacrifice, the brain was extracted and split into 2 halves. The right hemibrains were snap frozen on dry ice and stored at −80° C. The left half was dissected; with the front forebrain taken for Aβ ELISA and the remainder used for DMPK analysis. These samples were also snap frozen on dry ice and stored at −80° C. until use for analysis.
The cortex samples were thawed slightly on wet ice before they were homogenized with a small volume dispersing instrument (T10 basic ULTRA-TURRAX®) which was set at speed 5 for approximately 5-7 sec. The tissue was processed in a 10 times volume of the weight, for example 100 mg of tissue was homogenized in 1000 μL of Homogenization buffer. Homogenization buffer: 50 ml Milli Q water+50 nM NaCl+0.2% Diethylamin (DEA)+1 tablet of Complete Protease inhibitor cocktail+1 nM 4-(2-aminoethyl) benzenesulfonyl fluoride hydrochloride irreversible serine protease inhibitor (AEBSF).
After homogenization 450 μL aliquots of the samples were collected into a 1.5 ml Eppendorf tube and placed on wet ice, 0.5% NP-40 (50 ul) was added to all samples and then they were incubated on ice for 30 min. After which all samples were sonicated using an Ultrasonic homogenizer with 20 kHz homogeneous sound (SONOPLUS HD2070, Bandelin Electronic) 10 pulse set at 12-13% power to extract all the Aβ species. The samples were then centrifuged (Ole Dich 157 MPRF Micro centrifuge) at 20000G for 20 minutes at 4° C. After centrifugation […] of the supernatant was pipetted into 6004 microtubes tubes and neutralized with 154 of 1M Tris-HCL buffer.
WAKO 294-62501 Human/Rat Abeta amyloid (40) kit was used for all ELISA analyses. 30 μL plasma samples or 30 μL of the cortex supernatants generated as described above were placed in 600 μL microtubes tubes on wet ice. To this 30 μL of 8M urea (AppliChem A1049, 9025) was added to generate a 2-fold dilution. Both plasma and cortex supernatants were incubated on ice for 30 min. Standard rows were prepared from the standard peptide stock provided in the kit and standard diluent containing 1.6M Urea (200 μL 8M urea+800 μL of standard diluent) and 0.8M urea (400 μL 8M urea+3600 μL Standard diluent). A serial 2-fold dilution of […] from 100 pmol/ml to 0 pmol/L was prepared for the assay.
After incubation with urea, all samples were further diluted by addition of 5 times standard diluent from the Kit. This was done by adding 240 μL Standard Diluent to 60 μL sample/urea mixture, which was then mixed well. 100 μL of each diluted sample was pipetted into designated wells of the ELISA plate in duplicates. The plate was then covered and incubated overnight at 4° C. […]

Take `COc1cnc(C(=O)Nc2ccc(F)c([C@]3(C)CC[C@@](F)(CF)C(N)=N3)c2)cn1` [Compound 5, N-(3-((2S,5S)-6-Amino-5-fluoro-5-(fluoromethyl)-2-methyl-2,3,4,5-tetrahydropyridin-2-yl)-4-fluorophenyl)-5-methoxypyrazine-2-carboxamide]: where the note is “10 mg/kg p.o.”, the “Aβ40 reduction, Brain Rat” value is reported as 56% and the “Aβ40 reduction, Plasma Rat” value was determined as 44%. Moreover, under “30 mg/kg p.o.”, the “Aβ40 reduction, Brain Rat” value was determined as 65% and the “Aβ40 reduction, Plasma Rat” value was 46%.
The matching figures for `C[C@@]1(c2cc(NC(=O)c3cnc(C(F)F)cn3)ccc2F)CC[C@@](F)(CF)C(N)=N1` [Compound 11, N-(3-((2S,5S)-6-Amino-5-fluoro-5-(fluoromethyl)-2-methyl-2,3,4,5-tetrahydropyridin-2-yl)-4-fluorophenyl)-5-(difluoromethyl)pyrazine-2-carboxamide]: 21%, 39%, 41% and 60%.
The matching figures for `C[C@@]1(c2cc(NC(=O)c3ccc(F)cn3)ccc2F)CC[C@@](F)(CF)C(N)=N1` [Compound 13, N-(3-((2S,5S)-6-Amino-5-fluoro-5-(fluoromethyl)-2-methyl-2,3,4,5-tetrahydropyridin-2-yl)-4-fluorophenyl)-5-fluoropicolinamide]: 43%, 38%, 59% and 38%.
